From patent publication US20170334852A1, “CATIONIC LIPID” (Eisai R&D Management Co., Ltd., priority 2014, published 2017)

What was measured:
[1] = Particle diameter on storage in sealed vial at 4° C., analysis (7); type: physicochemical; conditions: lipid complex stored for a certain period
Protocol: In the compositions of Examples 46 to 52, each composition was stored in a sealed vial at 4° C. and the particle diameter (Z-average and polydispersity index) before the strorage, after 3 months from the storage and after 6 months from the storage was measured in the same manner as that for the composition of Example 29.

[2] = Particle diameter after mixing, PBS dialysis and storage at 4° C., analysis (9); type: physicochemical; conditions: storage period, compared to the composition of Comparative Example 3
Protocol: In the compositions of Examples 53 and 54 and Comparative Example 3, the particle diameter (Z-average and polydispersity index) was measured immediately after the lipid complex was generated by mixing the siRNA diluent and the lipid solution in the preparation of each composition, after the lipid complex was dialyzed into PBS, and after storage in the sealed vial at 4° C. for 2 months and 6 months, using a particle diameter-measuring device (trade name “Zetasizer Nano ZS”, manufactured by Malvern Instruments Ltd.).

Row | Increase in particle diameter of the lipid complex during storage (in words) [1] | Compound | Increase in particle diameter of the lipid complex during storage (in words) [2]
1 | stability is high | CCCCCCCCCCC(CCCCCCCCC(=O)OCC(CCCC)CCCCCC)OC(=O)C1CCN(C)CC1 (centres unmarked) [YS-120, 1-((2-butyloctyl)oxy)-1-oxoicosane-10-yl-1-methylpiperidine-4-carboxylate] | an increase in particle diameter of the lipid complex was suppressed
2 | stability is high | CCCCCCCCCCC(CCCCCCCCC(=O)OCCC(CCC)C(CCC)CCC)OC(=O)C1CCN(C)CC1 (centres unmarked) [YS-126, 1-((3,4-dipropylheptyl)oxy)-1-oxoicosane-10-yl-1-methylpiperidine-4-carboxylate] | –
3 | stability is high | CCCCCCCCCCC(CCCCCCCCC(=O)OC/C=C\CC(CCC)CCCC)OC(=O)C1CCN(C)CC1 (centres unmarked) [YS-123, (Z)-1-oxo-1-((5-propylnon-2-en-1-yl)oxy)icosane-10-yl-1-methylpiperidine-4-carboxylate] | –
4 | stability is high | CCCCCCCCCCC(CCCCCCCCC(=O)OCC(CCC)CC(CCC)CCC)OC(=O)C1CCN(C)CC1 (centres unmarked) [YS-125, 1-((2,4-dipropylheptyl)oxy)-1-oxoicosane-10-yl-1-methylpiperidine-4-carboxylate] | –
5 | stability is high | CCCCCCCCCCC(CCCCCCCCC(=O)OCCC(CCCCC)CCCCC)OC(=O)C1CCN(C)CC1 (centres unmarked) [YS-124, 1-oxo-1-((3-pentyloctyl)oxy)icosane-10-yl-1-methylpiperidine-4-carboxylate] | an increase in particle diameter of the lipid complex was suppressed
6 | stability is high | CCCCC/C=C\C(CCCC)COC(=O)CCCCCCCCC(CCCCCCCCCC)OC(=O)C1CCN(C)CC1 (centres unmarked) [YS-122, (Z)-1-((2-butylnon-3-en-1-yl)oxy)-1-oxoicosane-10-yl-1-methylpiperidine-4-carboxylate] | –
